According to article PMC10838953:

Experiments:
CAMK2D = CAMK2D (Homo sapiens, UniProt Q13557); assay: biochemical; details: read-out: %Ctrl @ 2000nM
CSNK1A1 = CSNK1A1 (Homo sapiens, UniProt P48729); assay: biochemical; details: read-out: %Ctrl @ 2000nM
LTK = LTK (Homo sapiens, UniProt P29376); assay: biochemical; details: read-out: %Ctrl @ 2000nM
CDK4-cyclinD3 = CDK4-cyclinD3 (Homo sapiens, UniProt P11802); assay: biochemical; details: read-out: %Ctrl @ 2000nM
MST4 = MST4 (Homo sapiens, UniProt Q9P289); assay: biochemical; details: read-out: %Ctrl @ 2000nM
INSR = INSR (Homo sapiens, UniProt P06213); assay: biochemical; details: read-out: %Ctrl @ 2000nM
PLK1 = PLK1 (Homo sapiens, UniProt P53350); assay: biochemical; details: read-out: %Ctrl @ 2000nM
MST1R = MST1R (Homo sapiens, UniProt Q04912); assay: biochemical; details: read-out: %Ctrl @ 2000nM
PAK2 = PAK2 (Homo sapiens, UniProt Q13177); assay: biochemical; details: read-out: %Ctrl @ 2000nM
TYRO3 = TYRO3 (Homo sapiens, UniProt Q06418); assay: biochemical; details: read-out: %Ctrl @ 2000nM
PIK3CB = PIK3CB (Homo sapiens, UniProt P42338); assay: biochemical; details: read-out: %Ctrl @ 2000nM
NLK = NLK (Homo sapiens, UniProt Q9UBE8); assay: biochemical; details: read-out: %Ctrl @ 2000nM
NLK, sequence (Q9UBE8 whole entry): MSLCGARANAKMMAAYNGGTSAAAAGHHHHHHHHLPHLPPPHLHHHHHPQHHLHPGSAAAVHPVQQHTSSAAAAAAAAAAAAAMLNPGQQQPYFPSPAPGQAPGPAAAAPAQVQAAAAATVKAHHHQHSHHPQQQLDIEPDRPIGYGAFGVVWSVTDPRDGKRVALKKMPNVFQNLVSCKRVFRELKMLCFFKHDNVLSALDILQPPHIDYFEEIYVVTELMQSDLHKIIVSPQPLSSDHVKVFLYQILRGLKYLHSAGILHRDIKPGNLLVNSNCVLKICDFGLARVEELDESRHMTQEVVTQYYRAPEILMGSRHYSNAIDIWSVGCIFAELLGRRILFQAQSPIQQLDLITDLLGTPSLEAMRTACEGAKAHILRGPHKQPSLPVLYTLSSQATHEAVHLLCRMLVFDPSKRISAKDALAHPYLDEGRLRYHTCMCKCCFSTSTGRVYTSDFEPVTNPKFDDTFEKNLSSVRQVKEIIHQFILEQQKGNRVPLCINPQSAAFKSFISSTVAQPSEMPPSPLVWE

KIT(A829P) = KIT(A829P) (Homo sapiens, UniProt P10721, A829P); assay: biochemical; details: read-out: %Ctrl @ 2000nM
GRK3 = GRK3 (Homo sapiens, UniProt P35626); assay: biochemical; details: read-out: %Ctrl @ 2000nM
GRK3, sequence (P35626 whole entry): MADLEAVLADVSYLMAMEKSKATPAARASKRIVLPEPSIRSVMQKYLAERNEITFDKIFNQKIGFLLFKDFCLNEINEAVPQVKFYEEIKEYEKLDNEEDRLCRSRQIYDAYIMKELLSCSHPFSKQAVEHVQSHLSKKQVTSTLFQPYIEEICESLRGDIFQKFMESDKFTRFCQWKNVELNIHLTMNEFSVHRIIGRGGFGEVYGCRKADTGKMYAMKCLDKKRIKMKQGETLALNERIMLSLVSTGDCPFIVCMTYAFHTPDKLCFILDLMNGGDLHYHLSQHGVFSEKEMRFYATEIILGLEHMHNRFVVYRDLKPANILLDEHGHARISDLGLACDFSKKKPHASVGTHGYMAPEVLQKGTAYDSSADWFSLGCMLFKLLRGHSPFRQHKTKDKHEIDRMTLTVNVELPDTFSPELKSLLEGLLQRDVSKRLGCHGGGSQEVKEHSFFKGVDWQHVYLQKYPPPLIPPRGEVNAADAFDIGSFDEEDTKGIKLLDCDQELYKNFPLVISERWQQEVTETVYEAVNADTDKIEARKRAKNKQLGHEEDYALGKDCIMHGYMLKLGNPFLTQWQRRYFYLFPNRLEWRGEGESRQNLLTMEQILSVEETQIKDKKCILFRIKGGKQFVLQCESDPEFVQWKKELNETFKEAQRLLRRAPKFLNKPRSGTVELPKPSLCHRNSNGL

MARK4 = MARK4 (Homo sapiens, UniProt Q96L34); assay: biochemical; details: read-out: %Ctrl @ 2000nM
TAOK2 = TAOK2 (Homo sapiens, UniProt Q9UL54); assay: biochemical; details: read-out: %Ctrl @ 2000nM
ERBB2 = ERBB2 (Homo sapiens, UniProt P04626); assay: biochemical; details: read-out: %Ctrl @ 2000nM
PIP5K2B = PIP5K2B (Homo sapiens, UniProt P78356); assay: biochemical; details: read-out: %Ctrl @ 2000nM
PIP5K2B, sequence (P78356 whole entry): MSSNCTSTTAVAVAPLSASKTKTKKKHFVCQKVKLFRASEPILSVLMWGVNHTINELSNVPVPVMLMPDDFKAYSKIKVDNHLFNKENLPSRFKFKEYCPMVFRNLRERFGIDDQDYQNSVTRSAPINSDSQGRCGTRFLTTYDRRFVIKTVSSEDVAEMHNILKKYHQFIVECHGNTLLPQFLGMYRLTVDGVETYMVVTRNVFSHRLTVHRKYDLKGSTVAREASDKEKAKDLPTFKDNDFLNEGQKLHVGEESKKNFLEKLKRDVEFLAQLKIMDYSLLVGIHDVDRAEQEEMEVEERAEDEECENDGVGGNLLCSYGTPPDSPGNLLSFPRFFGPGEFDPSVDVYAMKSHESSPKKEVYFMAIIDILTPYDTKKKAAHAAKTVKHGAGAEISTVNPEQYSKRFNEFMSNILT

MAP4K5 = MAP4K5 (Homo sapiens, UniProt Q9Y4K4); assay: biochemical; details: read-out: %Ctrl @ 2000nM
ROCK2 = ROCK2 (Homo sapiens, UniProt O75116); assay: biochemical; details: read-out: %Ctrl @ 2000nM
ROCK2, sequence (O75116 whole entry): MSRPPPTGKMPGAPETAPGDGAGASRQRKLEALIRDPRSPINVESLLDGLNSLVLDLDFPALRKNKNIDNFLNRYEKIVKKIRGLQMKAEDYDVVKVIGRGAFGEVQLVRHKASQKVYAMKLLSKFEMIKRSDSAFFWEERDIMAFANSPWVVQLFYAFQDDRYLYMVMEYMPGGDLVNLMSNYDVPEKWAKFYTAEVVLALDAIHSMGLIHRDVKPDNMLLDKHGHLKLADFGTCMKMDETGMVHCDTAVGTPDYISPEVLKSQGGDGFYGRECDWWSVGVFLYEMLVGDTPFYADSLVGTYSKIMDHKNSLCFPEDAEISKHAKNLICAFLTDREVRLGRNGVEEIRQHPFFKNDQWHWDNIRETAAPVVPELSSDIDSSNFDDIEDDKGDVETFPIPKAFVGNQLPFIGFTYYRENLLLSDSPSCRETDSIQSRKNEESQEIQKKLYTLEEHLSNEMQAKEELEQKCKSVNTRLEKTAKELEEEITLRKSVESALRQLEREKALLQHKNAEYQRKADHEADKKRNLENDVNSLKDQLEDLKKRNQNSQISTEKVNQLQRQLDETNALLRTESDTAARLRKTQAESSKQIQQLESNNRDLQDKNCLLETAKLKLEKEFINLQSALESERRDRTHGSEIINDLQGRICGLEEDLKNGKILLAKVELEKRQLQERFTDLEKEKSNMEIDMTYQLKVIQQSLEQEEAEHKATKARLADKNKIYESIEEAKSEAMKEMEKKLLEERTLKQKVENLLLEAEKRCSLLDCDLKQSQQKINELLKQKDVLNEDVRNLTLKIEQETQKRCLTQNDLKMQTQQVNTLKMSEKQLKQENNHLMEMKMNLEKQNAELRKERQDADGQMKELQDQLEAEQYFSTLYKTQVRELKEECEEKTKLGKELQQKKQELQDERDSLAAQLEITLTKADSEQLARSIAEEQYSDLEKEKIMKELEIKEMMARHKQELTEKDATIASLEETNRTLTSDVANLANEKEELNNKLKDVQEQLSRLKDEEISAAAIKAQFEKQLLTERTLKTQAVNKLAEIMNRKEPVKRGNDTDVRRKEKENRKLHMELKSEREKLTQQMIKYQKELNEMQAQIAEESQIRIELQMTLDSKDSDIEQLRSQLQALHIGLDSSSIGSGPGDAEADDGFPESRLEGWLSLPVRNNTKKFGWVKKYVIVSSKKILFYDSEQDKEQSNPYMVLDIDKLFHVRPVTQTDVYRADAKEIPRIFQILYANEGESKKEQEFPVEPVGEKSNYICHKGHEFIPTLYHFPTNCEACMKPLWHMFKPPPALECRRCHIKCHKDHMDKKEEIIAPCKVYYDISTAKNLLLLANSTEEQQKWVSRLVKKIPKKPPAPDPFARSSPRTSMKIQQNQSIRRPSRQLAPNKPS

CDK4 = CDK4 (Homo sapiens, UniProt P11802); assay: biochemical; details: read-out: %Ctrl @ 2000nM
MRCKA = MRCKA (Homo sapiens, UniProt Q5VT25); assay: biochemical; details: read-out: %Ctrl @ 2000nM
CSNK1A1L = CSNK1A1L (Homo sapiens, UniProt Q8N752); assay: biochemical; details: read-out: %Ctrl @ 2000nM
ACVR2A = ACVR2A (Homo sapiens, UniProt P27037); assay: biochemical; details: read-out: %Ctrl @ 2000nM
ACVR2A, sequence (P27037 20-513): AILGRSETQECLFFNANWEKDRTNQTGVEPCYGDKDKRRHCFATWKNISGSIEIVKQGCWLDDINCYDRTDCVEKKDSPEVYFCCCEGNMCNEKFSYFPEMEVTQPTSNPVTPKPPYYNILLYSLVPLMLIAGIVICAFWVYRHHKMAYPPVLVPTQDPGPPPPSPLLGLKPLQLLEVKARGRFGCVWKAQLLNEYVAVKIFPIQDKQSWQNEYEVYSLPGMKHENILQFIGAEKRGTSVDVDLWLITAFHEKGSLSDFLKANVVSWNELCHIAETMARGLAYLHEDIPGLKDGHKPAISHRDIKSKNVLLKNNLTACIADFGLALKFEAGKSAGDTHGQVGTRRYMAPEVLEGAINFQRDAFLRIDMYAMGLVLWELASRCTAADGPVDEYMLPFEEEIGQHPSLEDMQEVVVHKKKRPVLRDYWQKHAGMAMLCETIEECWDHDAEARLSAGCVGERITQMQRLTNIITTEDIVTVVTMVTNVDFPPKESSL

VRK2 = VRK2 (Homo sapiens, UniProt Q86Y07); assay: biochemical; details: read-out: %Ctrl @ 2000nM
MYLK = MYLK (Homo sapiens, UniProt Q15746); assay: biochemical; details: read-out: %Ctrl @ 2000nM
[1] = target: RPS6KA5(Kin.Dom.1-N-terminal) (Homo sapiens, UniProt O75582); assay: biochemical; details: read-out: %Ctrl @ 2000nM
AKT (S129) = details: HEK293 cells; 48 h
KIT-autoinhibited = KIT-autoinhibited (Homo sapiens, UniProt P10721); assay: biochemical; details: read-out: %Ctrl @ 2000nM
STK33 = STK33 (Homo sapiens, UniProt Q9BYT3); assay: biochemical; details: read-out: %Ctrl @ 2000nM
CDC2L1 = CDC2L1 (Homo sapiens, UniProt P21127); assay: biochemical; details: read-out: %Ctrl @ 2000nM
CDC2L1, sequence (P21127 whole entry): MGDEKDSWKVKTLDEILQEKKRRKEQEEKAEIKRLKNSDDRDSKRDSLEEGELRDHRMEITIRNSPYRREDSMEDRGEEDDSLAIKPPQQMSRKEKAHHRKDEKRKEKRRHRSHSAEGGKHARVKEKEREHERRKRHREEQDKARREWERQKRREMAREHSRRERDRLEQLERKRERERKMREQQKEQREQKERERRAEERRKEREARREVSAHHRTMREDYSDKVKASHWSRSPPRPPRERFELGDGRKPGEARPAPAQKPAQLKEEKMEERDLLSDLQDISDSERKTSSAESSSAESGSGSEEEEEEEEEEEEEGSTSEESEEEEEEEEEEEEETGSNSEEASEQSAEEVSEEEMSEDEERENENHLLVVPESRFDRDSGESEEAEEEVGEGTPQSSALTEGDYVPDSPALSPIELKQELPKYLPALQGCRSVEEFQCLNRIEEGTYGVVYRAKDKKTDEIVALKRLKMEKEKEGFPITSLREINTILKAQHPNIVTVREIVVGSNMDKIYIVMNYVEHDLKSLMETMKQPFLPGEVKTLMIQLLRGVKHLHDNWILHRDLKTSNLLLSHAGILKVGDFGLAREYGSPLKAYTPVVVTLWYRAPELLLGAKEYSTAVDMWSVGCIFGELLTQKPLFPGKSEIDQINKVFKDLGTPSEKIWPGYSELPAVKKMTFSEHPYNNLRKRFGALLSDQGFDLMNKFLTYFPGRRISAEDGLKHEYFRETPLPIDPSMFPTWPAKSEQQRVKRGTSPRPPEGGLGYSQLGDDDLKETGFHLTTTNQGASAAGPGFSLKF

DYRK1B = DYRK1B (Homo sapiens, UniProt Q9Y463); assay: biochemical; details: read-out: %Ctrl @ 2000nM
A375 cells = details: 4 μM, 48 h
MKNK1 = MKNK1 (Homo sapiens, UniProt Q9BUB5); assay: biochemical; details: read-out: %Ctrl @ 2000nM
MKNK1, sequence (Q9BUB5 whole entry): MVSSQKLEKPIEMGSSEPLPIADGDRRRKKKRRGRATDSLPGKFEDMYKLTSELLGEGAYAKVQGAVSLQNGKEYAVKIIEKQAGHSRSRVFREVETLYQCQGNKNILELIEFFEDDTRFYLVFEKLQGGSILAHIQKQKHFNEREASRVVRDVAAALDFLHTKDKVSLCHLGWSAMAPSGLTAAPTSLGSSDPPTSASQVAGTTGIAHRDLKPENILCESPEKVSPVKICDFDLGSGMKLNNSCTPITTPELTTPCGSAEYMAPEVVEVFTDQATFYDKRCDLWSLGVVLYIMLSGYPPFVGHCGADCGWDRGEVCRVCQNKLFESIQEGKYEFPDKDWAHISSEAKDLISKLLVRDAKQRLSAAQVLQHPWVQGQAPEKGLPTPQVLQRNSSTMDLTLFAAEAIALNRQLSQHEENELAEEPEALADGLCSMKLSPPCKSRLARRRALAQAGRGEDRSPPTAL

[2] = target: ABL1(Q252H)-phosphorylated (Homo sapiens, UniProt P00519, Q252H); assay: biochemical; details: read-out: %Ctrl @ 2000nM
PKMYT1 = PKMYT1 (Homo sapiens, UniProt Q99640); assay: biochemical; details: read-out: %Ctrl @ 2000nM
PIK3C2G = PIK3C2G (Homo sapiens, UniProt O75747); assay: biochemical; details: read-out: %Ctrl @ 2000nM
VPS34 = VPS34 (Homo sapiens, UniProt Q8NEB9); assay: biochemical; details: read-out: %Ctrl @ 2000nM
MET(Y1235D) = MET(Y1235D) (Homo sapiens, UniProt P08581, Y1235D); assay: biochemical; details: read-out: %Ctrl @ 2000nM
TAK1 = TAK1 (Homo sapiens, UniProt O43318); assay: biochemical; details: read-out: %Ctrl @ 2000nM
MARK1 = MARK1 (Homo sapiens, UniProt Q9P0L2); assay: biochemical; details: read-out: %Ctrl @ 2000nM
MARK2 = MARK2 (Homo sapiens, UniProt Q7KZI7); assay: biochemical; details: read-out: %Ctrl @ 2000nM
PRP4 = PRP4 (Homo sapiens, UniProt Q13523); assay: biochemical; details: read-out: %Ctrl @ 2000nM

Compound `CC(C)COC(=O)c1[nH]c2ccc(F)cc2c1-c1cn(CC2CCN(CCNS(=O)(=O)c3ccc(CC(C)C)cc3)CC2)nn1` [AB668, isobutyl 5-fluoro-3-(1-((1-(2-((4-isobutylphenyl)sulfonamido)ethyl)piperidin-4-yl)methyl)-1H-1,2,3-triazol-4-yl)-1H-indole-2-carboxylate] has a remaining activity at 2 µM (CAMK2D) of 89%, a remaining activity at 2 µM (CSNK1A1) of 96% and a remaining activity at 2 µM (LTK) of 94%. The remaining activity at 2 µM (CDK4-cyclinD3) was 96%, the remaining activity at 2 µM (MST4) was 92% and the remaining activity at 2 µM (INSR) was 97%. It also gave a remaining activity at 2 µM (PLK1) of 100%, a remaining activity at 2 µM (MST1R) of 97% and a remaining activity at 2 µM (PAK2) of 81%. The remaining activity at 2 µM (TYRO3) was 100%, the remaining activity at 2 µM (PIK3CB) was 90% and the remaining activity at 2 µM (NLK) was 77%. The remaining activity at 2 µM (KIT(A829P)) was 78%, the remaining activity at 2 µM (GRK3) was 89% and the remaining activity at 2 µM (MARK4) was 87%. For the same compound, the remaining activity at 2 µM (TAOK2) was 100%, the remaining activity at 2 µM (ERBB2) was 100% and the remaining activity at 2 µM (PIP5K2B) was 100%. For the same compound, the remaining activity at 2 µM (MAP4K5) was 96%, the remaining activity at 2 µM (ROCK2) was 83% and the remaining activity at 2 µM (CDK4) was 100%. The remaining activity at 2 µM (MRCKA) was 84%, the remaining activity at 2 µM (CSNK1A1L) was 86% and the remaining activity at 2 µM (ACVR2A) was 95%. The remaining activity at 2 µM (VRK2) was 78%, the remaining activity at 2 µM (MYLK) was 81% and the remaining activity at 2 µM [1] was 95%. For the same compound, the AKT phosphorylation (AKT (S129)) was “weakly affected”, the remaining activity at 2 µM (KIT-autoinhibited) was 96% and the remaining activity at 2 µM (STK33) was 67%. For the same compound, the remaining activity at 2 µM (CDC2L1) was 90%, the remaining activity at 2 µM (DYRK1B) was 83% and the “proliferation, cell death and apoptosis” value (A375 cells) was “induced significant cell proliferation arrest associated with cell death and apoptosis”. The remaining activity at 2 µM (MKNK1) was 63%, the remaining activity at 2 µM [2] was 86% and the remaining activity at 2 µM (PKMYT1) was 70%. For the same compound, the remaining activity at 2 µM (PIK3C2G) was 100%, the remaining activity at 2 µM (VPS34) was 100% and the remaining activity at 2 µM (MET(Y1235D)) was 74%. It also gave a remaining activity at 2 µM (TAK1) of 84%, a remaining activity at 2 µM (MARK1) of 79% and a remaining activity at 2 µM (MARK2) of 81%. For the same compound, the remaining activity at 2 µM (PRP4) was 95%.
